Measured values published in patent US12679878B2, “CRF2 receptor agonists and their use in therapy” (SANOFI, priority 2020, dated 2026).
Starred links: 1 amine or outer side, 2 acyl side, 3 side chain; linkers in the order of their positions; H or OH if unused. Residues, ends and D or L forms follow the SMILES beside them. Groups on a side chain read outwards from the residue. *: point of attachment. γGlu = O=C(O)[C@H](CCC(=O)[*:2])N[*:1]; Palmitoyl = CCCCCCCCCCCCCCCC(=O)*

Experiments:
CRF2R = biological target: T1, CRF2R (Homo sapiens, UniProt Q13324); assay: EC50 [nM] CRF2R
T1 construct: expressed in transfected cells; host or cells: TeloHEAC
From the text: (§1) Table printed on a drawing sheet, Fig. 3
Head of the field: EC50 [nM] CRF2R
(§2) The patent's description of the figure: FIG. 3: Representative sequences from peptides according to the invention with an optimized stability profile, wherein K[sema] stands for K[gGlu-C(O)(CH2)14CH3]
(§3) First copying reader's note: Second half (positions 13-38, C-term and activity) of the first table; the rows follow the same order, so the four rows of Peptide Seq. 1 are Patent Sequence N° 130, 171, 172 and 173.
Where the first naming reader finds the target: head: EC50 [nM] CRF2R

hCRF1 = biological target: T2, hCRF1 (Homo sapiens, UniProt P34998); assay: hCRF1 EC50 [nM]
T2 construct: host or cells: CHO-K1 clone 2
From the text: as §1
Head of the field: hCRF1 EC50 [nM]
as §2, §3
Where the first naming reader finds the target: head: hCRF1 EC50 [nM]

T2 sequence (P34998 24-415 limits assumed): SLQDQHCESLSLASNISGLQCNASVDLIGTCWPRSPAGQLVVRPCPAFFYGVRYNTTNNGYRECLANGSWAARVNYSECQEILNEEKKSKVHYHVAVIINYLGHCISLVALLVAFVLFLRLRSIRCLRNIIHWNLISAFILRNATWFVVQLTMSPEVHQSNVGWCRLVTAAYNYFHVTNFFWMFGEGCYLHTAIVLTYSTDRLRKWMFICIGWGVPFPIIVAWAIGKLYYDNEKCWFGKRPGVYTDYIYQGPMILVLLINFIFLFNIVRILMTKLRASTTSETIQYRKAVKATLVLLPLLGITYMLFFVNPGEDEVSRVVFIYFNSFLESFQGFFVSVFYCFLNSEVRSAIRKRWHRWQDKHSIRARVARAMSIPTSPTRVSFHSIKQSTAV
T1 sequence (Q13324 whole entry, looked up): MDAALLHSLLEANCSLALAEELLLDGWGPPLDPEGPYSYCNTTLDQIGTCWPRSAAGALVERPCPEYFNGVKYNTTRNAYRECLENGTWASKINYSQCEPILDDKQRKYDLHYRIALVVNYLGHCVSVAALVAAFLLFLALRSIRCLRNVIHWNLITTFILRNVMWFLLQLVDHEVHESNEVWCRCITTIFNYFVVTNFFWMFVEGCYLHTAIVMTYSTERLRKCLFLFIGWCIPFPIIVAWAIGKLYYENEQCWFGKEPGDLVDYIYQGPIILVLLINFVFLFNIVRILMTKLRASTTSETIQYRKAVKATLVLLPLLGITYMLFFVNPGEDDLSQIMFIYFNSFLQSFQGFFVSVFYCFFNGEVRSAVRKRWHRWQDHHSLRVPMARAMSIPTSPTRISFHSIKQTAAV

EC50 (CRF2R): 0.07 nM | EC50 (hCRF1): 91 nM
Structure (SMILES): CCCCCCCCCCCCCCCC(=O)N[C@@H](CCC(=O)NCCCC[C@H](NC(=O)[C@@H](NC(=O)[C@H](CCCCN)NC(=O)[C@@H](NC(=O)[C@@H]1CCCN1C(=O)[C@@H](NC(=O)[C@H](CC(=O)O)NC(=O)[C@H](CC(C)C)NC(=O)[C@H](CO)NC(=O)[C@H](CC(C)C)NC(=O)[C@@H](NC(=O)[C@@H](N)Cc1ccccc1)[C@@H](C)O)C(C)C)[C@@H](C)O)[C@@H](C)CC)C(=O)N[C@@H](CCC(N)=O)C(=O)N[C@@H](CCCCN)C(=O)N[C@@H](CC(C)C)C(=O)N[C@@H](CC(C)C)C(=O)N[C@@H](CCCCN)C(=O)N[C@@H](CCC(N)=O)C(=O)N[C@@H](CCC(=O)O)C(=O)N[C@@H](CCCCN)C(=O)N[C@@H](CCC(N)=O)C(=O)N[C@@H](CCCCN)C(=O)N[C@@H](CCCCN)C(=O)N[C@@H](CCC(N)=O)C(=O)N[C@@H](CCCNC(=N)N)C(=O)N[C@@H](CCC(N)=O)C(=O)N[C@@H](CCCCN)C(=O)N[C@@H](C)C(=O)N[C@@H](CCCCN)C(=O)N[C@H](C(=O)N[C@@H](CC(N)=O)C(=O)N[C@@H](CCCCN)C(=O)N[C@@H](CCC(N)=O)C(=O)N[C@H](C(=O)N[C@@H](CC(C)C)C(=O)N[C@@H](CCC(=O)O)C(=O)N[C@@H](CCC(N)=O)C(=O)N[C@H](C(N)=O)C(C)C)[C@@H](C)CC)[C@@H](C)O)C(=O)O [SEQ ID NO: 10] (H-FTLSLDVPTKIK([γGlu-Palmitoyl])QKLLKQEKQKKQRQKAKTNKQILEQV-NH2)
